Reference: patent US11041000B2, “Peptide inhibitors of interleukin-23 receptor and their use to treat inflammatory diseases” (priority 2019, dated 2021)
Numbered stars: 1 amine (or outer) side, 2 acyl side, 3 side chain; on linkers, the order of the positions; unused ones are H or OH. Bridge positions count the residues as written; N and C are the ends. Square brackets hold non-standard residues; d marks the D form. Peptide text beside a SMILES is read from it. Trp(7-Me) = Cc1cccc2c(C[C@H](N)C(=O)O)c[nH]c12; Trp(2-Me) = Cc1[nH]c2ccccc2c1C[C@H](N)C(=O)O; Abu(4-yl) = O=C([C@H](CC[*:3])N[*:1])[*:2]; 2Nal = N[C@@H](Cc1ccc2ccccc2c1)C(=O)O; AEF = NCCOc1ccc(C[C@H](N)C(=O)O)cc1; αMeF = C[C@](N)(Cc1ccccc1)C(=O)O; Cit = NC(=O)NCCC[C@H](N)C(=O)O; Pen = CC(C)(S)[C@H](N)C(=O)O; hLeu = CC(C)CC[C@H](N)C(=O)O; αMeK = C[C@](N)(CCCCN)C(=O)O; Aib = CC(C)(N)C(=O)O; βAla = NCCC(=O)O; Sar = CNCC(=O)O

Tests used:
Type in all cases: in vitro ADME
[1] = Stability in simulated intestinal fluid (SIF); settings: simulated intestinal fluid with pancreatin, pH 6.8, 37° C., matrix is 100 fold dilution of standard SIF concentration; for half-life at 20 μM: read-out: SIF t½ (converted); for SIF t½: 20 μM
[2] = Stability in human fecal homogenate; settings: 20% fecal homogenate (supernatant), pH 6.8, 20% human fecal homogenate, anaerobic, 37° C., read-out: t½: Human Feces anaerobic (converted)
Procedure: (§1) Centrifuged the homogenate at 2800×g for 15 min. The supernatant is taken out and used for incubations. […] The final test compound concentration was 20 μM.

[3] = Stability in cynomolgus monkey fecal homogenate; settings: 20% fecal homogenate (supernatant), pH 6.8, 20% cynomolgus monkey fecal homogenate, anaerobic, 37° C., read-out: t½: Monkey Feces anaerobic (converted)
Procedure: as §1

Stability in rat plasma = settings: both sexes, SD rat plasma, EDTA, 37° C., read-out: t½: Rat Plasma EDTA (converted)

half-life at 20 μM [1]	half-life at 20 μM [2]	half-life at 20 μM [3]	half-life at 20 μM (Stability in rat plasma)	SIF t½ [1]	SMILES
17 h	> 24 h	> 24 h	> 24 h	–	CC(=O)NCCCC[C@H](NC(=O)[C@](C)(CCCCN)NC(=O)[C@H](Cc1ccc2ccccc2c1)NC(=O)[C@H](Cc1ccc(OCCN)cc1)NC(=O)[C@H]1NC(=O)[C@H](CCCNC(N)=O)NC(=O)[C@H](Cc2c[nH]c3c(C)cccc23)NC(=O)[C@H]([C@@H](C)O)NC(=O)[C@H](CC(N)=O)NC(=O)[C@@H](NC(C)=O)C(C)(C)SSC1(C)C)C(=O)N[C@@H](CC(N)=O)C(=O)NC(C)(C)C(=O)NCCC(N)=O [compound 340] (Ac-[Pen]NT[Trp(7-Me)][Cit][Pen][AEF][2Nal][αMeK]K(Ac)N[Aib][βAla]-NH2; disulfide 1-6)
20 h	> 24 h	13 h	> 24 h	–	CC(=O)NCCCC[C@@H]1NC(=O)[C@H](Cc2c[nH]c3c(C)cccc23)NC(=O)[C@H]([C@@H](C)O)NC(=O)[C@H](CCC(N)=O)NC(=O)[C@@H](NC(=O)[C@@H](CCCNC(=N)N)NC(C)=O)CCSC[C@@H](C(=O)N[C@@H](Cc2ccc(OCCN)cc2)C(=O)N[C@@H](Cc2ccc3ccccc3c2)C(=O)N[C@@](C)(CCCCN)C(=O)N[C@@H](CCCCNC(C)=O)C(=O)N[C@@H](CC(N)=O)C(=O)N[C@H](CCCCN)C(=O)N(C)CC(N)=O)NC1=O [compound 323] (Ac-[dR][Abu(4-yl)]QT[Trp(7-Me)]K(Ac)C[AEF][2Nal][αMeK]K(Ac)N[dK][Sar]-NH2; thioether 2-7)
–	> 24 h	> 24 h	> 24 h	24 h	CC(=O)NCCCC[C@@H]1NC(=O)[C@H](Cc2c[nH]c3c(C)cccc23)NC(=O)[C@H]([C@@H](C)O)NC(=O)[C@H](CC(N)=O)NC(=O)[C@@H](NC(C)=O)C(C)(C)SSC(C)(C)[C@@H](C(=O)N[C@@H](Cc2ccc(OCCN)cc2)C(=O)N[C@@H](Cc2ccc3ccccc3c2)C(=O)N[C@@](C)(CCCCN)C(=O)N[C@@H](CCCCNC(=O)CC(F)(F)F)C(=O)N[C@@H](CC(N)=O)C(=O)N[C@H](CC(C)C)C(N)=O)NC1=O [compound 360]
21 h	> 24 h	15 h	> 24 h	–	CC(=O)NCCCC[C@H](NC(=O)[C@](C)(CCCCN)NC(=O)[C@H](Cc1ccc2ccccc2c1)NC(=O)[C@H](Cc1ccc(OCCN)cc1)NC(=O)[C@H]1NC(=O)[C@H](CCCCNC(=O)CN)NC(=O)[C@H](Cc2c[nH]c3c(C)cccc23)NC(=O)[C@H]([C@@H](C)O)NC(=O)[C@H](CC(N)=O)NC(=O)[C@@H](NC(C)=O)C(C)(C)SSC1(C)C)C(=O)N[C@@H](CC(N)=O)C(=O)N[C@H](CC(C)C)C(N)=O [compound 320]
–	> 24 h	> 24 h	> 24 h	24 h	CC(=O)NCCCC[C@@H]1NC(=O)[C@H](Cc2c[nH]c3c(C)cccc23)NC(=O)[C@H]([C@@H](C)O)NC(=O)[C@H](CCC(C)C)NC(=O)[C@@H](NC(C)=O)C(C)(C)SSC(C)(C)[C@@H](C(=O)N[C@@H](Cc2ccc(OCCN)cc2)C(=O)N[C@@H](Cc2ccc3ccccc3c2)C(=O)N[C@@](C)(CCCCN)C(=O)N[C@@H](CCCCNC(C)=O)C(=O)N[C@@H](CC(N)=O)C(=O)N[C@H](CC(C)C)C(N)=O)NC1=O [compound 337] (Ac-[Pen][hLeu]T[Trp(7-Me)]K(Ac)[Pen][AEF][2Nal][αMeK]K(Ac)N[dL]-NH2; disulfide 1-6)
–	> 24 h	24 h	> 24 h	24 h	CC(=O)NCCCC[C@@H]1NC(=O)[C@H](Cc2c[nH]c3c(C)cccc23)NC(=O)[C@H]([C@@H](C)O)NC(=O)[C@H](CCC(N)=O)NC(=O)[C@@H](NC(=O)[C@@H](CCCNC(=N)N)NC(C)=O)CCSC[C@@H](C(=O)N[C@@H](Cc2ccc(OCCN)cc2)C(=O)N[C@@H](Cc2ccc3ccccc3c2)C(=O)N[C@@](C)(CCCCN)C(=O)N[C@@H](CCCCNC(C)=O)C(=O)N[C@@H](CC(N)=O)C(=O)N[C@@](C)(Cc2ccccc2)C(N)=O)NC1=O [compound 327] (Ac-[dR][Abu(4-yl)]QT[Trp(7-Me)]K(Ac)C[AEF][2Nal][αMeK]K(Ac)N[αMeF]-NH2; thioether 2-7)
–	> 24 h	> 24 h	> 24 h	24 h	CC(=O)NCCCC[C@@H]1NC(=O)[C@H](Cc2c[nH]c3c(C)cccc23)NC(=O)[C@H]([C@@H](C)O)NC(=O)[C@H](CC(N)=O)NC(=O)[C@@H](NC(C)=O)C(C)(C)SSC(C)(C)[C@@H](C(=O)N[C@@H](Cc2ccc(OCCN)cc2)C(=O)N[C@@H](Cc2c(C)[nH]c3ccccc23)C(=O)N[C@@](C)(CCCCN)C(=O)N[C@@H](CCCCNC(C)=O)C(=O)N[C@@H](CC(N)=O)C(=O)N[C@H](CCCCN)C(N)=O)NC1=O [compound 353] (Ac-[Pen]NT[Trp(7-Me)]K(Ac)[Pen][AEF][Trp(2-Me)][αMeK]K(Ac)N[dK]-NH2; disulfide 1-6)
11 h	> 24 h	> 24 h	7 h	–	CC(=O)NCCCC[C@@H]1NC(=O)[C@H](Cc2c[nH]c3c(C)cccc23)NC(=O)[C@H]([C@@H](C)O)NC(=O)[C@H](CC(N)=O)NC(=O)[C@@H](NC(C)=O)C(C)(C)SSC(C)(C)[C@@H](C(=O)N[C@@H](Cc2ccc(OCCN)cc2)C(=O)N[C@@H](Cc2ccc3ccccc3c2)C(=O)N[C@@](C)(CC(C)C)C(=O)N[C@@H](CCCCNC(C)=O)C(=O)N[C@@H](CC(N)=O)C(=O)N[C@H](CC(N)=O)C(N)=O)NC1=O [compound 354]
12 h	> 24 h	> 24 h	> 24 h	–	CC(=O)NCCCC[C@@H]1NC(=O)[C@H](Cc2c(C)[nH]c3ccccc23)NC(=O)[C@H]([C@@H](C)O)NC(=O)[C@H](CC(N)=O)NC(=O)[C@@H](NC(C)=O)C(C)(C)SSC(C)(C)[C@@H](C(=O)N[C@@H](Cc2ccc(OCCN)cc2)C(=O)N[C@@H](Cc2ccc3ccccc3c2)C(=O)N[C@@](C)(CCCCN)C(=O)N[C@@H](CCCCNC(C)=O)C(=O)N[C@@H](CC(N)=O)C(=O)N[C@H](CCCCN)C(N)=O)NC1=O [compound 351]
–	> 24 h	> 24 h	> 24 h	–	CC(=O)NCCCC[C@@H]1NC(=O)[C@H](Cc2c[nH]c3c(C)cccc23)NC(=O)[C@H]([C@@H](C)O)NC(=O)[C@@H](CC(N)=O)NC(=O)[C@@H](NC(C)=O)C(C)(C)SSC(C)(C)[C@@H](C(=O)N[C@@H](Cc2ccc(OCCN)cc2)C(=O)N[C@@H](Cc2ccc3ccccc3c2)C(=O)N[C@@](C)(CCCCN)C(=O)N[C@@H](CCCCNC(C)=O)C(=O)N[C@@H](CC(N)=O)C(=O)N[C@H](CC(C)C)C(N)=O)NC1=O [compound 338]
13 h	12 h	–	> 24 h	–	CC(=O)NCCCC[C@H](NC(=O)[C@](C)(CCCCN)NC(=O)[C@H](Cc1ccc2ccccc2c1)NC(=O)[C@H](Cc1ccc(OCCN)cc1)NC(=O)[C@H]1NC(=O)[C@H](CCCNC(N)=O)NC(=O)[C@H](Cc2c[nH]c3c(C)cccc23)NC(=O)[C@H]([C@@H](C)O)NC(=O)[C@H](CC(N)=O)NC(=O)[C@@H](NC(C)=O)C(C)(C)SSC1(C)C)C(=O)N[C@@H](CC(N)=O)C(=O)NC(C)(C)C(=O)N[C@@H](CCCNC(=N)N)C(N)=O [compound 343] (Ac-[Pen]NT[Trp(7-Me)][Cit][Pen][AEF][2Nal][αMeK]K(Ac)N[Aib]R-NH2; disulfide 1-6)

SMILES	half-life at 20 μM [1]	half-life at 20 μM [2]	half-life at 20 μM [3]	half-life at 20 μM (Stability in rat plasma)	SIF t½ [1]
CC(=O)NCCCC[C@H](NC(=O)[C@](C)(CCCCN)NC(=O)[C@H](Cc1ccc2ccccc2c1)NC(=O)[C@H](Cc1ccc(OCCN)cc1)NC(=O)[C@H]1NC(=O)[C@H](CCC(N)=O)NC(=O)[C@H](Cc2c[nH]c3ccc(C#N)cc23)NC(=O)[C@H]([C@@H](C)O)NC(=O)[C@H](CC(N)=O)NC(=O)[C@@H](NC(C)=O)C(C)(C)SSC1(C)C)C(=O)N[C@@H](CC(N)=O)C(=O)N[C@H](CCCCN)C(N)=O [compound 296]	–	> 24 h	> 24 h	> 24 h	24 h
CC(=O)NCCCC[C@H](NC(=O)[C@](C)(CCCCN)NC(=O)[C@H](Cc1ccc2ccccc2c1)NC(=O)[C@H](Cc1ccc(OCCN)cc1)NC(=O)[C@H]1NC(=O)[C@H](CCCCNC(=O)CCN)NC(=O)[C@H](Cc2c[nH]c3c(C)cccc23)NC(=O)[C@H]([C@@H](C)O)NC(=O)[C@H](CC(N)=O)NC(=O)[C@@H](NC(C)=O)C(C)(C)SSC1(C)C)C(=O)N[C@@H](CC(N)=O)C(=O)N[C@H](CC(C)C)C(N)=O [compound 321]	–	> 24 h	> 24 h	> 24 h	24 h
CC(=O)NCCCC[C@H](NC(=O)[C@](C)(CCCCN)NC(=O)[C@H](Cc1ccc2ccccc2c1)NC(=O)[C@H](Cc1ccc(OCCN)cc1)NC(=O)[C@H]1NC(=O)[C@H](CCCCNC(=O)CC(F)(F)F)NC(=O)[C@H](Cc2c[nH]c3c(C)cccc23)NC(=O)[C@H]([C@@H](C)O)NC(=O)[C@H](CC(N)=O)NC(=O)[C@@H](NC(C)=O)C(C)(C)SSC1(C)C)C(=O)N[C@@H](CC(N)=O)C(=O)N[C@H](CC(C)C)C(N)=O [compound 319]	–	> 24 h	> 24 h	> 24 h	–
CCCCCCCC(=O)NCCCC[C@@H]1NC(=O)[C@H](Cc2c[nH]c3c(C)cccc23)NC(=O)[C@H]([C@@H](C)O)NC(=O)[C@H](CC(N)=O)NC(=O)[C@@H](NC(C)=O)C(C)(C)SSC(C)(C)[C@@H](C(=O)N[C@@H](Cc2ccc(OCCN)cc2)C(=O)N[C@@H](Cc2ccc3ccccc3c2)C(=O)N[C@@](C)(CCCCN)C(=O)N[C@@H](CCCCNC(C)=O)C(=O)N[C@@H](CC(N)=O)C(=O)N[C@H](CC(C)C)C(N)=O)NC1=O [compound 317]	–	> 24 h	> 24 h	> 24 h	–
